Several values for one entry are separate records, joined by “and”; a condition that tells them apart may be missing. Equal values may be shown once.
Legend:
[1] = tested on: differentiated PC12 cells; experiment: βIII-tubulin immunocytochemistry of treated differentiated PC12 cells; type: cell-based; settings: 24 hrs
From the text: Further, immunocytochemistry was used to visualise the neurite toxicity effects described above. To do so, following the treatment period, cells were washed with PBS, fixed with 4% paraformaldehyde and permeabilised with ice-cold methanol. Neurons were immunostained for the neuronal marker βIII-tubulin (Promega; Madison, Wisconson, USA) and a Cy3-conjugated anti-mouse antibody (Invitrogen) was used to visualise the staining.

[2] = tested on: differentiated PC12 cells; experiment: Recovery from cisplatin-induced neurite toxicity (24 h drug, 24 h wash-out, 24 h phenoxodiol); type: cell-based; settings: after 48 hrs of recovery
Protocol: To determine whether phenoxodiol could have an effect on recovery from cisplatin- or paclitaxel-induced neurite toxicity by exacerbation, reversal, retardation or facilitation of repair, recovery experiments were performed. When conducting the recovery experiments, the concentrations of phenoxodiol tested were decreased by 1 log to 10 nM 100 nM and 1 μM.

[3] = patients receiving therapy; cited from earlier work
[4] = tested on: differentiated PC12 cells; experiment: Neurite length (longest neurite per neuron) in differentiated PC12 cells; type: cell-based
Protocol: Further to the above described analysis of cells containing neurites, the longest neurite per neuron present in each frame was measured using Image J open source software (NIH, USA).

[5] = tested on: differentiated PC12 cells; experiment: Neurite toxicity: percentage of differentiated PC12 cells with neurites after 24 h incubation; settings: for reduction in the percentage of cells with neurites: strong dose; for inhibition of neurite outgrowth, dose responsiveness: increasing concentrations, 24 hrs, FIG. 1; for reduction in cells with neurites compared to no treatment control: Example 2, p<0.001
Protocol: PC-12 cells were maintained in Dulbecco's Modified Eagle Media (DMEM; Gibco) with 10% calf serum (Turbo calf serum, Invitrogen), 5% horse serum (JRH Biosciences, Victoria, Australia) and 1% penicillin/streptomycin (Invitrogen) at 37° C., in a 5% CO2 atmosphere. Differentiation into neurons was achieved by seeding cells at a density of 15,000 cells/well in 24-well plates (Falcon Becton Dickinson), on 13 mm glass cover slips (Menzel Glaser, Germany) coated with laminin (Invitrogen) and poly-DL-ornithine (Sigma) in DMEM plus 1% horse serum and 50 ng/mL of nerve growth factor (NGF) (Sigma). The cells were incubated for 72 hours under differentiation conditions, before use in the neurite outgrowth assays below.
Working concentrations were diluted in PC12 cell differentiation medium as above. Treatments consisted of a 24 hour incubation in differentiation media with various concentrations of either agent.
Outgrowing projections were considered neurites if they were greater than a cell body width (10 μm), essentially as previously described. Images of all neurons in thirty randomly selected fields were digitally captured using an Olympus BX60 fluorescence microscope with a UPIanFI 40×/0.75 objective lens and a Zeiss Axiocam HRc digital camera and Zeiss Axiovision 3.1 software. Neurons in all fields were counted per condition and the number of cells with neurites expressed as a percentage of total cells present and error expressed as the standard error of the mean (sem). Each experiment was conducted in triplicate and the results pooled. Statistical significance of data was analysed using ANOVA followed by the Bonferroni post-hoc test.
Neurite toxicity was determined as the percent of cells comprising neurite outgrowths as described in Example 1.

PC12 cells = tested on: PC12 cells
Protocol: A serial dilution was also conducted for phenoxodiol to determine the concentration which would not affect normal growth of the differentiated cells. […] Working concentrations were diluted in PC12 cell differentiation medium as above.

N.N.[Cl][Pt][Cl] [cisplatin, Cis-diamine-dichloro-platinum]
percentage of cells bearing neurites compared to control (βIII-tubulin staining) ([1]; cisplatin 20 μg/ml): decreased the percentage of cells bearing neurites
neurite toxicity compared to the no treatment control ([2]; cisplatin 1 μg/ml): no neurite toxicity
neurite toxicity compared to the no treatment control ([2]; cisplatin 20 μg/ml, p<0.001): greater than 50%
patients experiencing mild neuropathy [3]: around 40%
patients experiencing severe neuropathy [3]: approximately 4%
average neurite length of the remaining neurites ([4]; cisplatin alone): no significant effect on the average neurite length
reduction in percentage of cells with neurites ([5]; cisplatin 1 μg/mL (3.33 μM), moderate dose, 24 h, Example 1): 31.9%
reduction in the percentage of cells with neurites ([5]; cisplatin 20 μg/mL (66.65 μM), 24 h, Example 1): 65.8%
neurite toxicity (percent neurites) ([5]; cisplatin alone 1 μg/ml, Example 2, ANOVA, t-test P<0.02): non-significant (n.s.) trend for moderate toxicity
decrease in percent neurites compared to control ([5]; cisplatin alone 20 μg/ml, Example 2, P<0.001): 42%
inhibition of neurite outgrowth, dose responsiveness [5]: dose response in inhibition of neurite outgrowth

CC(=O)O[C@H]1C(=O)[C@@]2(C)[C@H]([C@H](OC(=O)c3ccccc3)[C@]3(O)C[C@H](OC(=O)[C@H](O)[C@@H](NC(=O)c4ccccc4)c4ccccc4)C(C)=C1C3(C)C)[C@]1(OC(C)=O)CO[C@@H]1C[C@@H]2O [paclitaxel]
neurite length compared to the no treatment control ([4]; paclitaxel alone, both concentrations used, p<0.001): reduced neurite length
cytotoxicity at the chosen concentrations (PC12 cells): did not produce cytotoxicity
inhibition of neurite outgrowth, dose responsiveness [5]: dose response in inhibition of neurite outgrowth
decrease in the percentage of cells possessing neurites ([5]; paclitaxel 0.156 μg/mL (0.18 μM), moderate dose, 24 h, Example 1): 33%
reduction in the percentage of cells with neurites ([5]; paclitaxel 2.5 μg/mL (2.93 μM), 24 h, Example 1): 73.6%
reduction in cells with neurites compared to no treatment control ([5]; paclitaxel moderate dose (0.156 μg/ml)): 58%
reduction in cells with neurites compared to no treatment control ([5]; paclitaxel strong dose (2.4 μg/ml/2.93 μM)): 72%

Oc1ccc(C2=Cc3ccc(O)cc3OC2)cc1 [phenoxodiol, 2H-1-benzopyran-7-0,1,3-[4-hydroxyphenyl]]
cell and neurite toxicity in βIII-tubulin stained cells ([1]; phenoxodiol 10 μm): Significant cell and neurite toxicity
average neurite length compared to no treatment control ([4]; phenoxodiol 10 μM alone, p<0.001): significant reductions in average neurite length
average neurite length compared to no treatment control ([4]; phenoxodiol 10 μM in combination with Cisplatin and Paclitaxel, p<0.001): significant reductions in average neurite length
cytotoxicity (PC12 cells; 10 μM, data not shown): considerable cytotoxicity
effect on cell death or neurite outgrowth (PC12 cells; doses up to 1 μM, data not shown): no effect on cell death or neurite outgrowth
maximal concentration tested that did not affect survival of PC12 cells (PC12 cells; serial dilution): 1 μM and 3.2 μg/ml
sensitivity of neurite toxicity to the protective effect relative to cytotoxic and anti-proliferative effects in cancer cell lines ([5]; PC12 neuronal cell model vs a variety of cancer cell lines): approximately 10 fold
neurite toxicity in combination, compared to phenoxodiol 10 μM alone ([5]; phenoxodiol 10 μM + cisplatin 1 μg/ml (P<0.01) or 20 μg/ml (P<0.001)): increased toxicity
neurite toxicity in combination, compared to phenoxodiol 10 μM alone ([5]; phenoxodiol 10 μM + paclitaxel, both concentrations (P<0.001)): increased toxicity
effect on percent neurites ([5]; phenoxodiol alone 10 μM, 24 h, P<0.001 vs no treatment control): significant neurite toxicity

From US20100152284A1, “PREVENTION AND REVERSAL OF CHEMOTHERAPY-INDUCED PERIPHERAL NEUROPATHY” (NOVOGEN RESEARCH PTY LTD, priority 2006, published 2010)
